Measured values: ChEMBL document CHEMBL3352461, “Discovery and optimization of 5-fluoro-4,6-dialkoxypyrimidine GPR119 agonists” (Bioorg Med Chem Lett, 2014)

Key:
[1] = molecular target: T1, Glucose-dependent insulinotropic receptor (Homo sapiens, UniProt Q8TDV5); assay: […] of human GPR119 activity by homogeneous time resolved fluorescence cyclase (cAMP) assay; assay type: functional
T1 sequence (Q8TDV5 whole entry): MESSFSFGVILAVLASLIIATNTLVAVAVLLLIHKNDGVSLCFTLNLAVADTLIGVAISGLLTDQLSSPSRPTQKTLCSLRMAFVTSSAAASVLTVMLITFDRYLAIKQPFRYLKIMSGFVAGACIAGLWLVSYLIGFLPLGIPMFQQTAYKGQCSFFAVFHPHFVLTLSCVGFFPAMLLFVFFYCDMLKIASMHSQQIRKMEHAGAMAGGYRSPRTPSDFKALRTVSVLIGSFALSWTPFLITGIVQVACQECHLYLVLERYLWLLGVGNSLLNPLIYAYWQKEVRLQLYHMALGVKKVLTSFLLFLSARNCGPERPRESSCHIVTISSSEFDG

[2] = molecular target: T2, Glucose-dependent insulinotropic receptor (Homo sapiens) (UniProt Q8TDV5); assay: […] of human GPR119 activity by homogeneous time resolved fluorescence cyclase (cAMP) assay relative to AR231453; assay type: functional
T2 sequence (whole entry): T1 sequence (Q8TDV5 whole entry)

[3] = molecular target: T3, Glucose-dependent insulinotropic receptor (Rattus norvegicus, UniProt Q7TQN8); assay: […] of rat GPR119 activity by homogeneous time resolved fluorescence cyclase (cAMP) assay; assay type: functional
T3 sequence (Q7TQN8 whole entry): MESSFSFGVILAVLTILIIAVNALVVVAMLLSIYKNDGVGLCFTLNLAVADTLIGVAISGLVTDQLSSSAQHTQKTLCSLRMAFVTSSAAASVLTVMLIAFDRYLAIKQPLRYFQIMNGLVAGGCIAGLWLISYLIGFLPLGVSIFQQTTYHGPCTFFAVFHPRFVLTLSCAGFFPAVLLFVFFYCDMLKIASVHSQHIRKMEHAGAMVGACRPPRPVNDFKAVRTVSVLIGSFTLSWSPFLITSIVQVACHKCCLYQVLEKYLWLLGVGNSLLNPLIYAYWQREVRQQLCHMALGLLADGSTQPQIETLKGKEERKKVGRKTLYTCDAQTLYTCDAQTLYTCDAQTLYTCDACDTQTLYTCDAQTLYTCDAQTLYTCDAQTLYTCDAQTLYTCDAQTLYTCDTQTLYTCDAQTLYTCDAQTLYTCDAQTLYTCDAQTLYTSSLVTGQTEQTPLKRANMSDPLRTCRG

[4] = molecular target: T4, Glucose-dependent insulinotropic receptor (Rattus norvegicus) (UniProt Q7TQN8); assay: […] of rat GPR119 activity by homogeneous time resolved fluorescence cyclase (cAMP) assay relative to AR231453; assay type: functional
T4 sequence (whole entry): T3 sequence (Q7TQN8 whole entry)

[5] = molecular target: Cytochrome P450 2C9 (Homo sapiens, UniProt P11712); assay: Inhibition of CYP2C9 (unknown origin); assay type: ADME
Chain of Cytochrome P450 2C9 (P11712 whole entry): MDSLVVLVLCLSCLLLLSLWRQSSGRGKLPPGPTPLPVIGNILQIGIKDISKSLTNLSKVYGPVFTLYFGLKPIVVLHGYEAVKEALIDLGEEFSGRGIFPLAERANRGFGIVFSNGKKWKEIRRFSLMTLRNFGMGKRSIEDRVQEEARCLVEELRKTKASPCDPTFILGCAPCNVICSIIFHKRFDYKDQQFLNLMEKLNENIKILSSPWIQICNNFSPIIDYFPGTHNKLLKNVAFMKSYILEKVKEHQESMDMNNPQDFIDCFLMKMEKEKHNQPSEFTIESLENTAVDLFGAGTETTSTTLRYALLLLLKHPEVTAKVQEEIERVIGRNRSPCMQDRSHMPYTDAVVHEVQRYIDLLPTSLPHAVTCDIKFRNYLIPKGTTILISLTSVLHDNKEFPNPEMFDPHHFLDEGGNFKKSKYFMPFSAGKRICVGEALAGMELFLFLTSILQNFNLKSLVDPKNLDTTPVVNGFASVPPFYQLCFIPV

| Compound | EC50 [1] [µM] | Efficacy [2] [%] | EC50 [3] [µM] | Efficacy [4] [%] | IC50 [5] [µM] |
| --- | --- | --- | --- | --- | --- |
| Cc1nc(S(C)(=O)=O)ccc1Oc1ncnc(OC2CCN(C(=O)c3noc(C(C)(C)F)n3)CC2)c1F | 0.014 | 69 | 0.103 | 74 | – |
| Cc1nc(S(C)(=O)=O)ccc1Oc1ncnc(OC2CCN(C(=O)SC(C)C)CC2)c1F | 0.0068 | 95 | 0.0413 | 81 | – |
| Cc1nc(S(C)(=O)=O)ccc1Oc1ncnc(OC2CCN(C(=O)O[C@@H](C)CF)CC2)c1F | 0.186 | 72 | 1.68 | 84 | – |
| Cc1nc(S(C)(=O)=O)ccc1Oc1ncnc(OC2CCN(C(=O)O[C@@H](C)C(F)(F)F)CC2)c1F | 0.00986 | 78 | 0.109 | 80 | – |
| Cc1nc(S(C)(=O)=O)ccc1Oc1ncnc(OC2CCN(C(=O)OC3CCC3)CC2)c1F | 0.0136 | 65 | 0.167 | 81 | – |
| COc1c(Nc2ccc(S(C)(=O)=O)nc2C)ncnc1OC1CCN(C(=O)OC(C)C)CC1 [ADP-597] | – | 75 | – | 89 | 5.8 |
| Cc1nc(S(C)(=O)=O)ccc1Oc1ncnc(OC2CCN(C(=O)SC3CCC3)CC2)c1F | 0.00851 | 94 | 0.0774 | 81 | – |
| Cc1nc(S(C)(=O)=O)ccc1Oc1ncnc(OC2CCN(C(=S)OC3(C)CC3)CC2)c1F | – | – | 0.0488 | 49 | – |
| Cc1nc(S(C)(=O)=O)ccc1Oc1ncnc(OC2CCN(C(=O)C3(F)CCC3)CC2)c1F | 0.0247 | 99 | 0.123 | 91 | – |
| Cc1nc(S(C)(=O)=O)ccc1Oc1ncnc(OC2CCN(C(=O)OC3COC3)CC2)c1F | 0.326 | 58 | 2.5 | 66 | – |
| Cc1nc(S(C)(=O)=O)ccc1Oc1ncnc(OC2CCN(C(=O)c3nc(C(C)(C)F)no3)CC2)c1F | 0.0434 | 74 | 0.606 | 84 | – |
| CCC(F)(F)C(=O)N1CCC(Oc2ncnc(Oc3ccc(S(C)(=O)=O)nc3C)c2F)CC1 | 0.0174 | 85 | 0.0692 | 90 | – |
| Cc1nc(S(C)(=O)=O)ccc1Oc1ncnc(OC2CCN(C(=O)SC3(C)CC3)CC2)c1F | 0.0132 | 93 | 0.166 | 77 | – |
| Cc1nc(S(C)(=O)=O)ccc1Oc1ncnc(OC2CCN(C(=O)c3noc(C(C)C)n3)CC2)c1F | 0.0212 | 72 | 0.176 | 81 | – |
| Cc1nc(S(C)(=O)=O)ccc1Oc1ncnc(OC2CCN(C(=O)OC(C)(C)C)CC2)c1F | 0.00791 | 81 | 0.0496 | 97 | – |
| Cc1nc(S(C)(=O)=O)ccc1Oc1ncnc(OC2CCN(C(=O)OC3(C(F)(F)F)COC3)CC2)c1F | 0.0293 | 66 | 0.342 | 84 | – |
| CCC1(OC(=O)N2CCC(Oc3ncnc(Oc4ccc(S(C)(=O)=O)nc4C)c3F)CC2)CC1 | 0.022 | 65 | 0.333 | 83 | – |
| Cc1nc(S(C)(=O)=O)ccc1Oc1ncnc(OC2CCN(C(=S)OC(C)C)CC2)c1F | 0.0699 | -32 | 1.05 | 47 | – |

| Compound | EC50 [1] [µM] | Efficacy [2] [%] | EC50 [3] [µM] | Efficacy [4] [%] | IC50 [5] [µM] |
| --- | --- | --- | --- | --- | --- |
| Cc1nc(S(C)(=O)=O)ccc1Oc1ncnc(OC2CCN(C(=O)C3(C)CC3)CC2)c1F | 0.761 | 72 | – | – | – |
| Cc1nc(S(C)(=O)=O)ccc1Oc1ncnc(OC2CCN(C(=O)OC(C)C)CC2)c1F | 0.021 | 75 | 0.142 | 77 | > 50 |
| Cc1nc(S(C)(=O)=O)ccc1Oc1ncnc(OC2CCN(C(=O)O[C@H](C)CF)CC2)c1F | 0.196 | 59 | 1.52 | 79 | – |
| Cc1nc(S(C)(=O)=O)ccc1Oc1ncnc(OC2CCN(C(=O)c3ncc(Cl)cn3)CC2)c1F | 0.00612 | 83 | 0.0309 | 77 | – |
| CCc1cnc(C(=O)N2CCC(Oc3ncnc(Oc4ccc(S(C)(=O)=O)nc4C)c3F)CC2)nc1 | 0.0047 | 99 | 0.0408 | 80 | – |
| Cc1nc(S(C)(=O)=O)ccc1Nc1ncnc(OC2CCN(C(=O)OC(C)C)CC2)c1F | 0.132 | 77 | 0.265 | 85 | 5.5 |
| Cc1nc(S(C)(=O)=O)ccc1Oc1ncnc(OC2CCN(C(=O)SC3CC3)CC2)c1F | 0.0249 | 103 | 0.126 | 80 | – |
| Cc1nc(S(C)(=O)=O)ccc1Oc1ncnc(OC2CCN(C(=O)OC3(C(F)(F)F)CCC3)CC2)c1F | 0.0143 | 38 | 0.0633 | 82 | – |
| Cc1nc(S(C)(=O)=O)ccc1Oc1ncnc(OC2CCN(C(=O)O[C@H](C)C(F)(F)F)CC2)c1F | 0.0092 | 56 | 0.11 | 85 | – |
| Cc1nc(S(C)(=O)=O)ccc1Oc1ncnc(OC2CCN(C(=O)OC(C)(C)C#N)CC2)c1F | 0.0929 | 90 | 1.32 | 97 | – |
| Cc1nc(S(C)(=O)=O)ccc1Oc1ncnc(OC2CCN(C(=O)SC(C)(C)C)CC2)c1F | 0.00483 | 87 | 0.0307 | 76 | – |
| Cc1nc(S(C)(=O)=O)ccc1Oc1ncnc(OC2CCN(C(=O)C(C)(F)F)CC2)c1F | 0.037 | 76 | 0.239 | 87 | – |
| Cc1nc(S(C)(=O)=O)ccc1Oc1ncnc(OC2CCN(C(=O)C(C)(C)F)CC2)c1F | 0.0763 | 66 | 0.296 | 74 | – |
| Cc1nc(S(C)(=O)=O)ccc1Oc1ncnc(OC2CCN(C(=O)C(F)(F)F)CC2)c1F | 0.151 | 52 | 0.88 | 76 | – |
| Cc1nc(S(C)(=O)=O)ccc1Oc1ncnc(OC2CCN(C(=O)OC(C)(C)C(F)(F)F)CC2)c1F | 0.00653 | 36 | 0.0472 | 79 | – |
| Cc1nc(S(C)(=O)=O)ccc1Oc1ncnc(OC2CCN(C(=O)C3CCCC3)CC2)c1F | 0.0728 | 87 | 0.407 | 83 | – |
| Cc1nc(S(C)(=O)=O)ccc1Oc1ncnc(OC2CCN(C(=O)OC(C)(C)CF)CC2)c1F | 0.0199 | 74 | 0.138 | 95 | – |
